Literature values in EP0268925B1, “Safened pesticidal resin compositions for controlling soil borne pests and process for the preparation thereof” (priority 1986, dated 1988).

Assays:
rats = details: technical material
[1] = inhalation hazard

Structure (SMILES)	acute oral LD50 value in rats (rats)	inhalation LD50 [1] [mg/kg body weight]
CCOP(=S)(OCC)SCSCC [phorate, O,O-diethyl-S-(ethylthiomethyl)phosphorodithioate]	1.6-3.7 mg technical/kg	35
CCOP(=S)(OCC)SCSC(C)(C)C [terbufos, O,O-diethyl S-[[(1,1-dimethylethyl)thio]methyl]phosphorodithioate]	1.6 mg technical/kg	35
